Results published in US20040086942A1, “Ige receptor antagonists” (priority 2003, published 2004).
Where a SMILES comes first, the peptide text is derived from it. Bridges are numbered along the chain shown (N, C = ends). [ ]: non-standard residue; d: D form. Pip = O=C(O)[C@@H]1CCCCN1; NMeA = CN[C@@H](C)C(=O)O; Sar = CNCC(=O)O

Key:
[1] = 2D NMR structural score versus reference peptide; format: physicochemical; parameters: key to Struct. Score: +++ indicates the peptide is structured similarly to IGE063 (SEQ ID NO:49); + indicates the peptide is structured similarly to IGE063 (SEQ ID NO:49), but is less stable; −/+ indicates the peptide has some elements of stable structure, but the conformation differs from the reference structure (e.g., a different turn type is evident); − indicates the peptide is predominantly unstructured in aqueous solution; key to Structure Score: +++, peptide structurally similar to reference; +, structurally similar to reference but significantly less stable; +/−, peptide has some elements of stable structure, but the conformation differs from the reference structure; −, peptide is predominantly unstructured; *peptide IGE037 (SEQ ID NO:128) was initially unstructured (monomeric form), but became structured after spontaneous dimer formation; settings: for Struct. Score: reference IGE063
Protocol: Peptides were evaluated by 2D NMR spectroscopy to assess the effect of substitutions on the three-dimensional structure of the peptide analog. All peptides with a structural score indicated in Table 5 were analyzed by 2D NMR spectroscopy; backbone ^1H resonances were assigned and ^3JHN-Hα coupling constants were measured and compared to the reference peptide (IGE063, SEQ ID NO:49; see Example 5). Peptides are defined to be of similar structure to the reference peptide provided chemical shifts, coupling constants, and NOEs are consistent with that structure.
A structural score was assigned to peptides analyzed by 2D NMR spectroscopy. For each of these peptides, backbone ^1H resonances have been assigned, and the ^3JHN-Ha coupling constants have been measured and compared to the reference peptide (i.e., IGE134 (SEQ ID NOS:155, 171)). Peptides are defined to be of similar structure to the reference peptide provided. chemical shifts, coupling constants, and NOEs are consistent with that structure.

[2] = molecular target: T1, alpha subunit of the human FcεRI receptor (Homo sapiens, UniProt P12319); experiment: cell-based 125I-IgE binding inhibition assay on CHO FcεRI+ cells
T1 construct: expressed in transfected cells; host or cells: Chinese hamster ovary (CHO FcεRI+) cells
T1 sequence (P12319 26-257): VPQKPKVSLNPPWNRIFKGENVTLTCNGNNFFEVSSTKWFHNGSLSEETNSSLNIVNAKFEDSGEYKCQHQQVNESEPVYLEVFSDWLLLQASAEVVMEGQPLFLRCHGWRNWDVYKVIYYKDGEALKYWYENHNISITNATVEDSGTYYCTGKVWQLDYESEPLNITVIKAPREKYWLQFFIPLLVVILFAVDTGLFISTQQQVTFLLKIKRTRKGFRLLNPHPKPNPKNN
Protocol: . The following day the cells were rinsed three times with PBS and then once with F12/DMEM. Peptide stocks were reconstituted in 100 mM Hepes buffered water, pH 7.2, at a concentration of 5 mg/mL. Working concentrations of the peptide were diluted in assay buffer (see below). 75 ul, of a desired concentration of peptide was added to the top row of a separate 96 well microtiter plate and serially diluted 1:3 in 50 uL of the assay buffer (F12/DMEM, 1% BSA, 0.05% NaN3 and […] Hepes pH 7.2). Starting concentrations ranged from 50-500 uM. Next, 50 uL of the diluted peptide was transferred to the 96 microtiter well plate containing a monolayer of CHO FcεRI+ cells. After a 1 hour incubation at room temperature, 50 uL of ^125I-IgE (1.5 nM) was added to each well and incubated for an additional 45-60 minutes at 4° C. followed by 5 washes with 200 uL of assay buffer. Cells were solubilized with 200 uL of 1 N NaOH and transferred to a 96 microtiter tube for counting in a gamma counter to determine counts bound. The data were plotted using KaleidaGraph 3.0 and fitted using 4-parameter fits. IC50 values were determined for each peptide.
Six peptides based on selected clones from library #516 were synthesized and assayed for the ability to inhibit the binding of ^125I-IgE to a Chinese hamster ovary cell line expressing the alpha subunit of the IgE high affinity receptor, FcεRI. The peptides were synthesized as nine residue monomers and oxidized to allow the formation of a disulfide bridge resulting in a cyclic peptide. The size of each peptide was confirmed by mass spectrometry.

Struct. Score [1] | SMILES | further results
+++ | CSCC[C@H](NC(=O)[C@@H]1CSSC[C@H](NC(=O)[C@H](CCCNC(=N)N)NC(=O)[C@@H]2CCCN2C(=O)[C@H](CC(C)C)NC(=O)[C@H](CC(N)=O)NC(C)=O)C(=O)N[C@@H]([C@@H](C)O)C(=O)N[C@@H](CCC(=O)O)C(=O)NCC(=O)N2CCC[C@H]2C(=O)N[C@@H](C(C)C)C(=O)NCC(=O)N[C@@H](Cc2c[nH]c3ccccc23)C(=O)N[C@@H](C(C)C)C(=O)N1)C(=O)O [IGE106, Ac-NLPRCTEGPVGWVCM] (Ac-NLPRCTEGPVGWVCM-OH; disulfide 5-14; C-terminus assumed) | –
+ | CSCC[C@H](NC(=O)[C@@H]1CSSC[C@H](NC(=O)[C@@H]2CCCN2C(=O)[C@H](CC(C)C)NC(=O)[C@H](CC(N)=O)NC(C)=O)C(=O)N[C@@H]([C@@H](C)O)C(=O)N[C@@H](CCC(=O)O)C(=O)NCC(=O)N2CCC[C@H]2C(=O)N[C@@H](Cc2c[nH]c3ccccc23)C(=O)NCC(=O)N[C@@H](Cc2c[nH]c3ccccc23)C(=O)N[C@@H](C(C)C)C(=O)N1)C(=O)O [IGE107, Ac-NLPCTEGPWGWVCM] (Ac-NLPCTEGPWGWVCM-OH; disulfide 4-13) | –
+++ | CSCC[C@H](NC(=O)[C@@H]1CSSC[C@H](NC(=O)[C@H](CCCNC(=N)N)NC(=O)[C@@H]2CCCN2C(=O)[C@H](CC(C)C)NC(=O)[C@H](CC(N)=O)NC(C)=O)C(=O)N[C@@H]([C@@H](C)O)C(=O)N[C@@H](CCC(=O)O)C(=O)NCC(=O)N2CCC[C@H]2C(=O)N[C@@H](CCCCN)C(=O)NCC(=O)N[C@@H](Cc2c[nH]c3ccccc23)C(=O)N[C@@H](C(C)C)C(=O)N1)C(=O)N[C@@H](C)C(=O)N[C@@H](CC(=O)O)C(=O)N[C@@H](CC(=O)O)C(N)=O [IGE032, Ac-NLPRCTEGPKGWVCMADD-nh2] (Ac-NLPRCTEGPKGWVCMADD-NH2; disulfide 5-14) | –
+++ | CSCC[C@H](NC(=O)[C@@H]1CSSC[C@H](NC(=O)[C@H](CCCNC(=N)N)NC(=O)[C@@H]2CCCN2C(=O)[C@H](CC(C)C)NC(=O)[C@H](CC(N)=O)NC(C)=O)C(=O)N[C@@H]([C@@H](C)O)C(=O)N[C@@H](CCC(=O)O)C(=O)NCC(=O)N2CCC[C@H]2C(=O)N[C@@H](Cc2c[nH]c3ccccc23)C(=O)N[C@H](C)C(=O)N[C@@H](Cc2c[nH]c3ccccc23)C(=O)N[C@@H](C(C)C)C(=O)N1)C(=O)O [IGE105, Ac-NLPRCTEGPWaWVCM] (Ac-NLPRCTEGPW[dA]WVCM-OH; disulfide 5-14; C-terminus assumed) | –
+++ | CSCC[C@H](NC(=O)[C@@H]1CSSC[C@H](NC(=O)[C@H](CCCNC(=N)N)NC(=O)[C@@H]2CCCN2C(=O)[C@H](CC(C)C)NC(=O)[C@H](CC(N)=O)NC(C)=O)C(=O)N[C@@H]([C@@H](C)O)C(=O)N[C@@H](CCC(=O)O)C(=O)NCC(=O)N2CCCC[C@H]2C(=O)N[C@@H](Cc2c[nH]c3ccccc23)C(=O)NCC(=O)N[C@@H](Cc2c[nH]c3ccccc23)C(=O)N[C@@H](C(C)C)C(=O)N1)C(=O)O [IGE095, Ac-NLPRCTEG(Pip)WGWVCM] (Ac-NLPRCTEG[Pip]WGWVCM-OH; disulfide 5-14; C-terminus assumed) | –
+++ | CSCC[C@H](NC(=O)[C@@H]1CSSC[C@H](NC(=O)[C@H](CCCNC(=N)N)NC(=O)[C@@H]2CCCN2C(=O)[C@H](CC(C)C)NC(=O)[C@@H](N)CC(N)=O)C(=O)N[C@@H]([C@@H](C)O)C(=O)N[C@@H](CCC(=O)O)C(=O)NCC(=O)N2CCC[C@H]2C(=O)N[C@@H](Cc2c[nH]c3ccccc23)C(=O)NCC(=O)N[C@@H](Cc2c[nH]c3ccccc23)C(=O)N[C@@H](Cc2ccc(O)cc2)C(=O)N1)C(=O)O [IGE077, NLPRCTEGPWGWYCM] (H-NLPRCTEGPWGWYCM-OH; disulfide 5-14; N-terminus and C-terminus assumed) | –
−/+ | CSCC[C@H](NC(=O)[C@@H]1CSSC[C@H](NC(=O)[C@H](CCCNC(=N)N)NC(=O)[C@@H]2CCCN2C(=O)[C@H](CC(C)C)NC(=O)[C@H](CC(N)=O)NC(C)=O)C(=O)N[C@@H]([C@@H](C)O)C(=O)N[C@@H](CCC(=O)O)C(=O)NCC(=O)N(C)CC(=O)N[C@@H](Cc2c[nH]c3ccccc23)C(=O)NCC(=O)N[C@@H](Cc2c[nH]c3ccccc23)C(=O)N[C@@H](C(C)C)C(=O)N1)C(=O)O [IGE097, Ac-NLPRCTEG(N-Me-G)WGWVCM] (Ac-NLPRCTEG[Sar]WGWVCM-OH; disulfide 5-14; C-terminus assumed) | –
– | CC(C)C[C@@H]1NC(=O)[C@H](CCC(=O)O)NC(=O)[C@H](Cc2ccc(O)cc2)NC(=O)[C@@H]2CSSC[C@H](NC(=O)[C@H](CC(C)C)NC(=O)[C@H](CCC(=O)O)NC(=O)[C@H](Cc3ccc(O)cc3)NC(=O)[C@H](CC(=O)O)NC1=O)C(=O)N1CCC[C@H]1C(=O)N[C@@H](CC(=O)O)C(=O)N[C@@H](C(C)C)C(=O)N[C@H](C(=O)N[C@@H](Cc1ccc(O)cc1)C(=O)N[C@H](C(=O)NCC(=O)N[C@@H](CCCNC(=N)N)C(=O)O)C(C)C)CSSC[C@H](NC(=O)[C@H](CCC(N)=O)NC(=O)[C@@H](N)C(C)C)C(=O)N1CCC[C@H]1C(=O)N[C@@H](Cc1c[nH]cn1)C(=O)N[C@@H](Cc1ccccc1)C(=O)N2 [IGE156] (H-VQCPHFCYELDYELCPDVCYVGR-OH; disulfide 3-19, 7-15 (inferred)) | Structure Score ([1]; reference IGE134): +++
+++ | CSCC[C@H](NC(=O)[C@@H]1CSSC[C@H](NC(=O)[C@H](CCCNC(=N)N)NC(=O)[C@@H]2CCCN2C(=O)[C@H](CC(C)C)NC(=O)[C@H](CC(N)=O)NC(C)=O)C(=O)N[C@@H]([C@@H](C)O)C(=O)N[C@@H](CCC(=O)O)C(=O)NCC(=O)N(C)[C@@H](C)C(=O)N[C@@H](Cc2c[nH]c3ccccc23)C(=O)NCC(=O)N[C@@H](Cc2c[nH]c3ccccc23)C(=O)N[C@@H](C(C)C)C(=O)N1)C(=O)O [IGE096, Ac-NLPRCTEG(N-Me-A)WGWVCM] (Ac-NLPRCTEG[NMeA]WGWVCM-OH; disulfide 5-14; C-terminus assumed) | –
– | CSCC[C@H](NC(=O)[C@@H]1CSSC[C@H](NC(=O)[C@@H]2CCCN2C(=O)[C@H](CC(C)C)NC(=O)[C@H](CC(N)=O)NC(C)=O)C(=O)N[C@@H]([C@@H](C)O)C(=O)N[C@@H](C)C(=O)NCC(=O)N2CCC[C@H]2C(=O)N[C@@H](Cc2c[nH]c3ccccc23)C(=O)NCC(=O)N[C@@H](Cc2c[nH]c3ccccc23)C(=O)N[C@@H](C(C)C)C(=O)N1)C(=O)N[C@@H](C)C(=O)N[C@@H](C)C(=O)N[C@@H](CC(=O)O)C(N)=O [IGE060, Ac-NLPCTAGPWGWVCMAAD-nh2] (Ac-NLPCTAGPWGWVCMAAD-NH2; disulfide 4-13) | IC50 ([2]; inhibition of labeled IgE-binding to CHO FcεRI+ cells, read-out: Mean IC50(uM) ± S.D.): > 500 µM
– | CSCC[C@H](NC(=O)[C@@H]1CSSC[C@H](NC(=O)[C@H](CCCNC(=N)N)NC(=O)[C@@H]2CCCN2C(=O)[C@H](CC(C)C)NC(=O)[C@@H](N)CC(N)=O)C(=O)N[C@@H]([C@@H](C)O)C(=O)N[C@@H](CCC(=O)O)C(=O)NCC(=O)N2CCC[C@H]2C(=O)N[C@@H](Cc2c[nH]c3ccccc23)C(=O)NCC(=O)N[C@@H](Cc2c[nH]c3ccccc23)C(=O)N[C@@H](C(C)C)C(=O)N1)C(=O)N[C@@H](C)C(=O)N[C@@H](C)C(=O)N[C@@H](CC(=O)O)C(=O)O [NLPRCTEGPWGWVCMAAD] (H-NLPRCTEGPWGWVCMAAD-OH; disulfide 5-14; N-terminus and C-terminus assumed) | fold improvement over the EIQECTEGPWGWFCVGSG peptide [2]: 40 fold; fold improvement over the MGTLCLEGPEGWFCIESA peptide [2]: greater than 160 fold
